From patent US9834558B2, “Substituted bridged urea analogs as sirtuin modulators” (GLAXOSMITHKLINE LLC, priority 2013, dated 2017) come the findings set out here.

Where two headings read alike, the source gives them in different places.

This assay addresses T1, SIRT1 (Homo sapiens, UniProt Q96EB6).
T1 sequence (Q96EB6 1-747): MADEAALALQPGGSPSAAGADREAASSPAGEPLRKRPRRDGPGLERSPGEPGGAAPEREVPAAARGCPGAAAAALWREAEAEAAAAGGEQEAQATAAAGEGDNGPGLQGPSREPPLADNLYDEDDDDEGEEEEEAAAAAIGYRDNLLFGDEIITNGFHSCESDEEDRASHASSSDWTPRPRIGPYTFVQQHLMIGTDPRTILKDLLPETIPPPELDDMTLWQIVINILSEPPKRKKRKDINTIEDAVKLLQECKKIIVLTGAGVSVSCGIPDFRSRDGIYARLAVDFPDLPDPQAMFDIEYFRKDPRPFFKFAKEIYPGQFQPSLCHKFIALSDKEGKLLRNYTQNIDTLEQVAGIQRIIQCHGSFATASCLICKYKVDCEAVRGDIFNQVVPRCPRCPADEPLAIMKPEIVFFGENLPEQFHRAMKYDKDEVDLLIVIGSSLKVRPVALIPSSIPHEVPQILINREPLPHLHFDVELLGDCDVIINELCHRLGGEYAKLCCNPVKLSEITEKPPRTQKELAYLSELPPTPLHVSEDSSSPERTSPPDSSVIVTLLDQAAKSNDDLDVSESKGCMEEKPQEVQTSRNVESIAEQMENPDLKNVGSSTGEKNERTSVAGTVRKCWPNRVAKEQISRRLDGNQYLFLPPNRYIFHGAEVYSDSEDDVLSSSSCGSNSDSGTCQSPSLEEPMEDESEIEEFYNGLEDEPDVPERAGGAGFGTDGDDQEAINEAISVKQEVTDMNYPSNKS
Nature of the assay: Trp mass spectrometry assay of SIRT1 activation. It counts as biochemical. As to conditions: for TRP Activity (EC1.5): EC1.5 = concentration that results in 150% activation of SIRT1. The procedure, abridged:
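Activation read-out: mass-spec measurement of O-acetyl-ADP-ribose or deacetylated Trp peptide versus compound-free controls, giving EC1.5 and Percent Maximum Activation. Reactions ran 25 min at 25 °C, pH 7.5, with 120 μM βNAD+, 0.5 μM acetylated p53-derived peptide and 10 nM His-tagged SIRT1.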

Where [1] appears, read: concentration giving 150% activation of SIRT1, Trp peptide substrate.
The mark [2] stands for this setting: Trp mass spectrometry assay, EC1.5 = concentration of test compound that results in 150% activation of SIRT1.
Where [3] appears, read: Trp peptide assay, maximum activity relative to control (100%), read-out: TRP MAX RESP (percent maximum fold activation).
The mark [4] stands for this setting: Trp mass spectrometry assay, concentration of test compound giving 150% activation of SIRT1.

As to `O=C(Nc1cccc(Br)n1)N1c2nc(-c3cccc(C(F)(F)F)c3)ccc2N2CC[C@H]1C2` [Example 652], the “Tryp AVG EC1.5 (μM)” value under setting [1] is listed as “A (A (EC1.5<1 μM))”.

For `Cc1ccncc1-c1ccc2c(n1)N(C(=O)Nc1cnccn1)[C@H]1CCCN2C1` [Example 513], the “Tryp AVG EC1.5 (μM)” value under setting [2] was “C (C (EC1.5>25 μM))”.

For the compound `O=C(NCCc1ccccc1)N1c2nc(-c3cccc(C(F)(F)F)c3)ccc2N2CC[C@H]1C2` [Example 598], the “Tryp AVG EC1.5 (μM)” value under setting [2] is recorded as “B (B (EC1.5 1-25 μM))”.

`C#CCNc1nccc(NC(=O)N2c3nc(-c4ccc(C5(C(F)(F)F)N=N5)cc4)ccc3N3CC[C@H]2C3)n1` [Example 805]: the “Tryp AVG EC1.5 (μM)” value under setting [1] is recorded as “B (B (EC1.5 1-25 μM))”.

Turning to `Cc1cc(-c2ccc3c(n2)N(C(=O)Nc2cncc(F)n2)[C@H]2CCN3C2)ccn1` [(9S)-N-(6-fluoropyrazin-2-yl)-5-(2-methylpyridin-4-yl)-1,6,8-triazatricyclo[7.2.1.0 {2,7}]dodeca-2(7),3,5-triene-8-carboxamide], the “TRP Activity (EC1.5)” value (Trp peptide assay) is listed as “A (A (EC1.5<1 μM))”. The Emax under setting [3] was more than 150%.

Consider `Cc1ccc(-c2ccc3c(n2)N(C(=O)Nc2cncc(F)c2)[C@H]2CCCN3C2)cn1` [Example 477], for which, under setting [2], the “Tryp AVG EC1.5 (μM)” value was “B (B (EC1.5 1-25 μM))”.

Take `C#CNc1nccc(NC(=O)N2c3nc(-c4cccc(C5(C(F)(F)F)N=N5)c4)ccc3N3CC[C@H]2C3)n1` [Example 809]: the “Tryp AVG EC1.5 (μM)” value under setting [1] is reported as “B (B (EC1.5 1-25 μM))”. In addition, the Emax (percent maximum fold activation of SIRT1, Trp peptide substrate, read-out: Tryp % Fold Act) is more than 150%.

Turning to `COc1cc(NC(=O)N2c3nc(-c4cccc(Cl)c4)ccc3N3CCC2CC3)ncn1` [Example 522], under setting [2], the “Tryp AVG EC1.5 (μM)” value was “B (B (EC1.5 1-25 μM))”.

For `COc1cncc(NC(=O)N2c3nc(-c4cccc(N5CCCC5)c4)ccc3N3CC[C@H]2C3)n1` [Example 366], the “Tryp AVG EC1.5 (μM)” value under setting [4] is recorded as “A (A (EC1.5<1 μM))”.

In the case of `CNc1cc(-c2ccc3c(n2)N(C(=O)Nc2cnccn2)[C@H]2CCN3C2)ccn1` [(9S)-5-[2-(methylamino)pyridin-4-yl]-N-(pyrazin-2-yl)-1,6,8-triazatricyclo[7.2.1.0 {2,7}]dodeca-2(7),3,5-triene-8-carboxamide], the “TRP Activity (EC1.5)” value (Trp peptide assay) is listed as “B (B (EC1.5 1-25 μM))”. Further, the Emax under setting [3] was more than 150%.

For the compound `Cc1cncc(-c2ccc3c(n2)N(C(=O)Nc2cccnn2)[C@H]2CCCN3C2)c1` [Example 519], the “Tryp AVG EC1.5 (μM)” value under setting [2] is “A (A (EC1.5<1 μM))”.

On to `Cc1cc(-c2ccc3c(n2)N(C(=O)Nc2ccc4nn(C)cc4c2)[C@H]2CCCN3C2)ccn1` [(9S)-N-(2-methyl-2H-indazol-5-yl)-5-(2-methylpyridin-4-yl)-1,6,8-triazatricyclo[7.3.1.0 {2,7}]trideca-2,4,6-triene-8-carboxamide], for which the “TRP Activity (EC1.5)” value (Trp peptide assay) is reported as “A (A (EC1.5<1 μM))”. Moreover, the Emax under setting [3] is more than 150%.

For `Cc1ccc(-c2ccc3c(n2)N(C(=O)Nc2nc4ccc(F)cc4s2)[C@H]2CCN3C2)cn1` [(9S)-N-(6-fluoro-1,3-benzothiazol-2-yl)-5-(6-methylpyridin-3-yl)-1,6,8-triazatricyclo[7.2.1.0 {2,7}]dodeca-2,4,6-triene-8-carboxamide], where the note is “Trp peptide assay”, the “TRP Activity (EC1.5)” value is “B (B (EC1.5 1-25 μM))”. In addition, the Emax (read-out: TRP MAX RESP (percent maximum fold activation)) was more than 150%.

Turning to `Cc1nc(NC(=O)N2c3nc(-c4cncc(Cl)c4)ccc3N3CCC[C@H]2C3)sc1C` [Example 402], the “Tryp AVG EC1.5 (μM)” value under setting [4] was “A (A (EC1.5<1 μM))”.

Turning to `Cc1cc(-c2ccc3c(n2)N(C(=O)Nc2cnccn2)[C@@H]2CCN3C2)ccn1` [(9R)-5-(2-methylpyridin-4-yl)-N-(pyrazin-2-yl)-1,6,8-triazatricyclo[7.2.1.0 {2,7}]dodeca-2(7),3,5-triene-8-carboxamide], the “TRP Activity (EC1.5)” value (Trp peptide assay) was “B (B (EC1.5 1-25 μM))”. Besides, the Emax under setting [3] is more than 150%.

Take `Cc1ccnc(NC(=O)N2c3nc(-c4ccnc(C)c4)ccc3N3CC[C@H]2C3)c1` [(9S)-N-(4-methylpyridin-2-yl)-5-(2-methylpyridin-4-yl)-1,6,8-triazatricyclo[7.2.1.0^2,7]dodeca-2,4,6-triene-8-carboxamide]: the “TRP Activity (EC1.5)” value (Trp peptide assay) is on record as “B (B (EC1.5 1-25 μM))”. Besides, under setting [3], the Emax was more than 150%.

`Cc1nc(NC(=O)N2c3nc(-c4cccc(N(C)C)c4)ccc3N3CCC[C@H]2C3)sc1C` [Example 383]: the “Tryp AVG EC1.5 (μM)” value under setting [4] is “A (A (EC1.5<1 μM))”.

Turning to `CS(=O)(=O)c1cccc(-c2ccc3c(n2)N(C(=O)Nc2cccc(-c4cnco4)c2)[C@H]2CCN3C2)c1` [Example 710], the “Tryp AVG EC1.5 (μM)” value under setting [1] is on record as “A (A (EC1.5<1 μM))”.

With `O=C(Nc1cccc(C2(C(F)(F)F)N=N2)c1)N1c2nc(-c3cccc(C(F)(F)F)c3)ccc2N2CCC[C@H]1C2` [Example 335], under setting [4], the “Tryp AVG EC1.5 (μM)” value is reported as “A (A (EC1.5<1 μM))”.

For `Cc1ccc(-c2ccc3c(n2)N(C(=O)Nc2cncc(OC[C@@H](O)CO)n2)[C@H]2CCN3C2)cn1` [(9S)-N-{6-[(2S)-2,3-dihydroxypropoxy]pyrazin-2-yl}-5-(6-methylpyridin-3-yl)-1,6,8-triazatricyclo[7.2.1.0 {2,7}]dodeca-2(7),3,5-triene-8-carboxamide], the “TRP Activity (EC1.5)” value (Trp peptide assay) is “B (B (EC1.5 1-25 μM))”. Also, the Emax under setting [3] is more than 150%.

Turning to `Cc1cc(-c2ccc3c(n2)N(C(=O)Nc2cnccn2)[C@H]2CCCN3C2)ccn1` [(9S)-5-(2-methylpyridin-4-yl)-N-(pyrazin-2-yl)-1,6,8-triazatricyclo[7.3.1.0 {2,7}]trideca-2(7),3,5-triene-8-carboxamide], the “TRP Activity (EC1.5)” value (Trp peptide assay) was “A (A (EC1.5<1 μM))”. In addition, the Emax under setting [3] is more than 150%.

`Cc1cc(-c2ccc3c(n2)N(C(=O)Nc2cc(-c4cnco4)ccn2)[C@H]2CCN3C2)ccn1` [Example 746]: under setting [1], the “Tryp AVG EC1.5 (μM)” value is “A (A (EC1.5<1 μM))”.

`O=C(Nc1ccccn1)N1c2nc(-c3cccc(C(F)(F)F)c3)ccc2N2CC[C@H]1C2` [816 (7)]: the “Tryp AVG EC1.5 (μM)” value under setting [1] is “A (A (EC1.5<1 μM))”.

On to `NC(=O)CN1CCC(c2cccc(NC(=O)N3c4nc(-c5cccc(C(F)(F)F)c5)ccc4N4CC[C@H]3C4)c2)C1` (stereo partly shown) [Example 594], for which the “Tryp AVG EC1.5 (μM)” value under setting [2] is reported as “A (A (EC1.5<1 μM))”.

Take `O=C(Nc1cccnc1)N1c2nc(N3CCC[C@H](C(F)(F)F)C3)ccc2N2CCC[C@H]1C2` [(9S)-N-(pyridin-3-yl)-5-[(3S)-3-(trifluoromethyl)piperidin-1-yl]-1,6,8-triazatricyclo[7.3.1.0 {2,7}]trideca-2(7),3,5-triene-8-carboxamide]: the “TRP Activity (EC1.5)” value (Trp peptide assay) is on record as “A (A (EC1.5<1 μM))”. The Emax under setting [3] is more than 150%.

Turning to `O=C(Nc1cnccn1)N1c2nc(N3CCOC(C4CC4)C3)ccc2N2CC[C@H]1C2` (stereo partly drawn) [(9S)-5-(2-cyclopropylmorpholin-4-yl)-N-(pyrazin-2-yl)-1,6,8-triazatricyclo[7.2.1.0 {2,7}]dodeca-2,4,6-triene-8-carboxamide], for the setting “Trp peptide assay”, the “TRP Activity (EC1.5)” value is on record as “B (B (EC1.5 1-25 μM))”. Further, under setting [3], the Emax is more than 150%.

Take `O=C(Nc1cnccn1)N1c2nc(-c3cncc(C(F)(F)F)c3)ccc2N2C[C@@H](O)[C@H]1C2` [Example 695]: the “Tryp AVG EC1.5 (μM)” value under setting [1] is “B (B (EC1.5 1-25 μM))”.

Regarding `CC(C)(C)OC(=O)NCCNC(=N)c1ccc(NC(=O)N2c3nc(-c4cccc(C(F)(F)F)c4)ccc3N3CCC[C@H]2C3)cc1` [Example 788], under setting [1], the “Tryp AVG EC1.5 (μM)” value is “A (A (EC1.5<1 μM))”.

Take `O=C(Nc1cccc(-c2ccc(C(F)(F)F)cn2)c1)N1c2nc(-c3cccc(C(F)(F)F)c3)ccc2N2CC[C@H]1C2` [Example 618]: under setting [2], the “Tryp AVG EC1.5 (μM)” value is reported as “B (B (EC1.5 1-25 μM))”.

As to `Cc1cc(-c2ccc3c(n2)N(C(=O)Nc2ccn(C)n2)[C@H]2CCN3C2)ccn1` [(9S)-N-(1-methyl-1H-pyrazol-3-yl)-5-(2-methylpyridin-4-yl)-1,6,8-triazatricyclo[7.2.1.0 {2,7}]dodeca-2,4,6-triene-8-carboxamide], the “TRP Activity (EC1.5)” value (Trp peptide assay) was “B (B (EC1.5 1-25 μM))”. Besides, the Emax under setting [3] is more than 150%.

As to `Cc1cc(-c2ccc3c(n2)N(C(=O)Nc2ccc4[nH]ncc4n2)[C@H]2CCN3C2)ccn1` [(9S)-5-(2-methylpyridin-4-yl)-N-{1H-pyrazolo[4,3-b]pyridin-5-yl}-1,6,8-triazatricyclo[7.2.1.0 {2,7}]dodeca-2(7),3,5-triene-8-carboxamide], the “TRP Activity (EC1.5)” value (Trp peptide assay) is “A (A (EC1.5<1 μM))”. Besides, the Emax under setting [3] was more than 150%.

Consider `Cc1nc(NC(=O)N2c3nc(-c4cccc(Cl)c4)ccc3N3C[C@@H](O)[C@H]2C3)sc1C` [Example 688], for which, under setting [1], the “Tryp AVG EC1.5 (μM)” value is recorded as “B (B (EC1.5 1-25 μM))”.

With `O=C(Nc1nnc(-c2ccccc2)o1)N1c2nc(-c3cccc(C(F)(F)F)c3)ccc2N2CC[C@H]1C2` [Example 719], the “Tryp AVG EC1.5 (μM)” value under setting [1] is given as “A (A (EC1.5<1 μM))”.
